Laboratory results published in the supplement of paper PMC9013687.

Assays:
Danio rerio embryo [1] = test: EC20 Yolk sac size_Increase; higher = less potent; conditions: exposure time: 4 dpf
Experimental: (§1)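 Zebrafish embryos (UFZ-OBI strain) were exposed from 2 hpf for 48 h (2 dpf) or 96 h (4 dpf) at 28 °C; spontaneous tail coiling was scored at 25 hpf. Morphological features from automated image analysis (FishInspector), heart rate and locomotor response were fitted with drc models. Quantal endpoints were dichotomised at 2.5 SD from controls and fitted with a log-logistic model; heart rate, pigmentation and STC were normalised to the replicate control mean. Betamethasone was tested as betamethasone dipropionate, diflorasone as diflorasone diacetate.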

Danio rerio embryo [2] = test: EC20 Body length_Decrease; higher = less potent
Experimental: as §1

Danio rerio embryo [3] = test: EC20 Any effect; higher = less potent
Experimental: as §1

Danio rerio embryo [4] = test: EC10 Pericard size_Increase; higher = less potent
Experimental: as §1

Danio rerio embryo [5] = test: EC20 LMR dark; higher = less potent; conditions: exposure time: 4 dpf
Experimental: as §1

Danio rerio embryo [6] = test: EC50 Otolith-eye distance_Decrease; conditions: exposure time: 4 dpf
Experimental: as §1

Danio rerio embryo [7] = test: EC50 Curvature_Increase; conditions: exposure time: 2 dpf
Experimental: as §1

Danio rerio embryo [8] = test: EC10 LMR dark; higher = less potent; conditions: exposure time: 4 dpf
Experimental: as §1

Danio rerio embryo [9] = test: EC20 Pericard size_Increase; higher = less potent
Experimental: as §1

Danio rerio embryo [10] = test: EC10 Otolith-eye distance_Decrease; higher = less potent; conditions: exposure time: 4 dpf
Experimental: as §1

Danio rerio embryo [11] = test: EC10 Curvature_Increase; higher = less potent; conditions: exposure time: 2 dpf
Experimental: as §1

Danio rerio embryo [12] = tested on: Danio rerio embryo
Experimental: as §1

Danio rerio embryo [13] = test: EC20 Eye-jaw distance_Decrease; higher = less potent; conditions: exposure time: 4 dpf
Experimental: as §1

Danio rerio embryo [14] = test: EC20 Bladder size_Decrease; higher = less potent; conditions: exposure time: 4 dpf
Experimental: as §1

Danio rerio embryo [15] = test: EC20 Otolith-eye distance_Decrease; higher = less potent; conditions: exposure time: 4 dpf
Experimental: as §1

Danio rerio embryo [16] = test: EC10 Bladder size_Decrease; higher = less potent; conditions: exposure time: 4 dpf
Experimental: as §1

Danio rerio embryo [17] = test: EC20 Curvature_Increase; higher = less potent; conditions: exposure time: 2 dpf
Experimental: as §1

Danio rerio embryo [18] = test: EC50 Pericard size_Increase
Experimental: as §1

Danio rerio embryo [19] = test: EC50 Body length_Decrease
Experimental: as §1

Danio rerio embryo [20] = test: EC50 Yolk sac size_Increase; conditions: exposure time: 4 dpf
Experimental: as §1

Danio rerio embryo [21] = test: EC10 Body length_Decrease; higher = less potent
Experimental: as §1

Danio rerio embryo [22] = conditions: exposure time: 4 dpf
Experimental: as §1

Danio rerio embryo [23] = test: EC10 Any effect; higher = less potent
Experimental: as §1

Danio rerio embryo [24] = test: spontaneous tail coiling frequency (coils/min/embryo); higher = more spontaneous movement; conditions: 25 hpf
Experimental: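 Spontaneous tail coilings of zebrafish embryos exposed from 2 hpf were recorded at 24-25 hpf in 1-min videos and detected by a KNIME workflow from grey-value variance. Betamethasone was tested as the dipropionate, diflorasone as the diacetate.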

Danio rerio embryo [25] = test: EC10 Yolk sac size_Increase; higher = less potent; conditions: exposure time: 4 dpf
Experimental: as §1

Danio rerio embryo [26] = test: EC50 Eye-jaw distance_Decrease; conditions: exposure time: 4 dpf
Experimental: as §1

Danio rerio embryo [27] = test: EC50 Bladder size_Decrease; conditions: exposure time: 4 dpf
Experimental: as §1

Danio rerio embryo [28] = test: EC10 Eye-jaw distance_Decrease; higher = less potent; conditions: exposure time: 4 dpf
Experimental: as §1

CCCCOC(=O)[C@@H](C)Oc1ccc(Oc2ccc(C(F)(F)F)cn2)cc1 [fluazifop-p-butyl]
Conditions | EC10 Bladder size Decrease [nM] | EC10 Curvature Increase [nM] | EC10 Eye-jaw distance Decrease [nM] | EC10 LMR dark [nM] | EC10 Otolith-eye distance Decrease [nM] | EC10 Yolk sac size Increase [nM] | EC20 Bladder size Decrease [nM] | EC20 Curvature Increase [nM] | EC20 Eye-jaw distance Decrease [nM] | EC20 LMR dark [nM] | EC20 Otolith-eye distance Decrease [nM] | EC20 Yolk sac size Increase [nM] | EC50 Bladder size Decrease [nM] | EC50 Curvature Increase [nM] | EC50 Eye-jaw distance Decrease [nM] | EC50 LMR dark [nM] | EC50 Otolith-eye distance Decrease [nM] | EC50 Yolk sac size Increase [nM]
Danio rerio embryo [1] | – | – | – | – | – | – | – | – | – | – | – | 2620 | – | – | – | – | – | –
Danio rerio embryo [5] | – | – | – | – | – | – | – | – | – | 767 | – | – | – | – | – | – | – | –
Danio rerio embryo [6] | – | – | – | – | – | – | – | – | – | – | – | – | – | – | – | – | 2000 | –
Danio rerio embryo [7] | – | – | – | – | – | – | – | – | – | – | – | – | – | 6370 | – | – | – | –
Danio rerio embryo [8] | – | – | – | 362 | – | – | – | – | – | – | – | – | – | – | – | – | – | –
Danio rerio embryo [10] | – | – | – | – | 629 | – | – | – | – | – | – | – | – | – | – | – | – | –
Danio rerio embryo [11] | – | 2280 | – | – | – | – | – | – | – | – | – | – | – | – | – | – | – | –
Danio rerio embryo [13] | – | – | – | – | – | – | – | – | 1040 | – | – | – | – | – | – | – | – | –
Danio rerio embryo [14] | – | – | – | – | – | – | 994 | – | – | – | – | – | – | – | – | – | – | –
Danio rerio embryo [15] | – | – | – | – | – | – | – | – | – | – | 964 | – | – | – | – | – | – | –
Danio rerio embryo [16] | 780 | – | – | – | – | – | – | – | – | – | – | – | – | – | – | – | – | –
Danio rerio embryo [17] | – | – | – | – | – | – | – | 3340 | – | – | – | – | – | – | – | – | – | –
Danio rerio embryo [20] | – | – | – | – | – | – | – | – | – | – | – | – | – | – | – | – | – | 3420
Danio rerio embryo [22] | – | – | – | – | – | – | – | – | – | – | – | – | – | – | – | 2380 | – | –
Danio rerio embryo [25] | – | – | – | – | – | 2240 | – | – | – | – | – | – | – | – | – | – | – | –
Danio rerio embryo [26] | – | – | – | – | – | – | – | – | – | – | – | – | – | – | 2360 | – | – | –
Danio rerio embryo [27] | – | – | – | – | – | – | – | – | – | – | – | – | 1510 | – | – | – | – | –
Danio rerio embryo [28] | – | – | 645 | – | – | – | – | – | – | – | – | – | – | – | – | – | – | –

Conditions | EC10 Any effect [nM] | EC10 Body length Decrease [nM] | EC10 Pericard size Increase [nM] | EC20 Any effect [nM] | EC20 Body length Decrease [nM] | EC20 Pericard size Increase [nM] | EC50 Any effect [nM] | EC50 Body length Decrease [nM] | EC50 Otolith [nM] | EC50 Pericard size Increase [nM] | spontaneous tail coiling frequency
Danio rerio embryo [2], exposure time: 2 dpf | – | – | – | – | 1710 | – | – | – | – | – | –
Danio rerio embryo [2], exposure time: 4 dpf | – | – | – | – | 1150 | – | – | – | – | – | –
Danio rerio embryo [3], exposure time: 2 dpf | – | – | – | 942 | – | – | – | – | – | – | –
Danio rerio embryo [3], exposure time: 4 dpf | – | – | – | 624 | – | – | – | – | – | – | –
Danio rerio embryo [4], exposure time: 2 dpf | – | – | 1840 | – | – | – | – | – | – | – | –
Danio rerio embryo [4], exposure time: 4 dpf | – | – | 485 | – | – | – | – | – | – | – | –
Danio rerio embryo [9], exposure time: 2 dpf | – | – | – | – | – | 2940 | – | – | – | – | –
Danio rerio embryo [9], exposure time: 4 dpf | – | – | – | – | – | 834 | – | – | – | – | –
Danio rerio embryo [12], exposure time: 2 dpf | – | – | – | – | – | – | 3100 | – | 9450 | – | –
Danio rerio embryo [12], exposure time: 4 dpf | – | – | – | – | – | – | 1540 | – | – | – | –
Danio rerio embryo [18], exposure time: 2 dpf | – | – | – | – | – | – | – | – | – | 6560 | –
Danio rerio embryo [18], exposure time: 4 dpf | – | – | – | – | – | – | – | – | – | 2110 | –
Danio rerio embryo [19], exposure time: 2 dpf | – | – | – | – | – | – | – | 3700 | – | – | –
Danio rerio embryo [19], exposure time: 4 dpf | – | – | – | – | – | – | – | 2670 | – | – | –
Danio rerio embryo [21], exposure time: 2 dpf | – | 1090 | – | – | – | – | – | – | – | – | –
Danio rerio embryo [21], exposure time: 4 dpf | – | 702 | – | – | – | – | – | – | – | – | –
Danio rerio embryo [23], exposure time: 2 dpf | 469 | – | – | – | – | – | – | – | – | – | –
Danio rerio embryo [23], exposure time: 4 dpf | 368 | – | – | – | – | – | – | – | – | – | –
Danio rerio embryo [24], 1.29 µM | – | – | – | – | – | – | – | – | – | – | 1.94
Danio rerio embryo [24], 1.93 µM | – | – | – | – | – | – | – | – | – | – | 1.98
Danio rerio embryo [24], 2.9 µM | – | – | – | – | – | – | – | – | – | – | 2.62
Danio rerio embryo [24], 4.35 µM | – | – | – | – | – | – | – | – | – | – | 1.95
Danio rerio embryo [24], 5.2 µM | – | – | – | – | – | – | – | – | – | – | 0.71
Danio rerio embryo [24], 6.52 µM | – | – | – | – | – | – | – | – | – | – | 1.41
Danio rerio embryo [24], 9.78 µM | – | – | – | – | – | – | – | – | – | – | 1.62
